From patent US8329904B2, “Azacyclic derivatives” (Hoffmann-La Roche Inc., priority 2009, dated 2012) come the findings set out here.

The assay addresses T1, human HSL (Homo sapiens, UniProt Q05469).
T1 construct: overlapping PCR to generate a full length human HSL ORF with a 3′-His6 tag; His6 (C); made in house; host or cells: High 5 insect cells (baculovirus, pFast-BAC)
T1 sequence (Q05469 1-1076): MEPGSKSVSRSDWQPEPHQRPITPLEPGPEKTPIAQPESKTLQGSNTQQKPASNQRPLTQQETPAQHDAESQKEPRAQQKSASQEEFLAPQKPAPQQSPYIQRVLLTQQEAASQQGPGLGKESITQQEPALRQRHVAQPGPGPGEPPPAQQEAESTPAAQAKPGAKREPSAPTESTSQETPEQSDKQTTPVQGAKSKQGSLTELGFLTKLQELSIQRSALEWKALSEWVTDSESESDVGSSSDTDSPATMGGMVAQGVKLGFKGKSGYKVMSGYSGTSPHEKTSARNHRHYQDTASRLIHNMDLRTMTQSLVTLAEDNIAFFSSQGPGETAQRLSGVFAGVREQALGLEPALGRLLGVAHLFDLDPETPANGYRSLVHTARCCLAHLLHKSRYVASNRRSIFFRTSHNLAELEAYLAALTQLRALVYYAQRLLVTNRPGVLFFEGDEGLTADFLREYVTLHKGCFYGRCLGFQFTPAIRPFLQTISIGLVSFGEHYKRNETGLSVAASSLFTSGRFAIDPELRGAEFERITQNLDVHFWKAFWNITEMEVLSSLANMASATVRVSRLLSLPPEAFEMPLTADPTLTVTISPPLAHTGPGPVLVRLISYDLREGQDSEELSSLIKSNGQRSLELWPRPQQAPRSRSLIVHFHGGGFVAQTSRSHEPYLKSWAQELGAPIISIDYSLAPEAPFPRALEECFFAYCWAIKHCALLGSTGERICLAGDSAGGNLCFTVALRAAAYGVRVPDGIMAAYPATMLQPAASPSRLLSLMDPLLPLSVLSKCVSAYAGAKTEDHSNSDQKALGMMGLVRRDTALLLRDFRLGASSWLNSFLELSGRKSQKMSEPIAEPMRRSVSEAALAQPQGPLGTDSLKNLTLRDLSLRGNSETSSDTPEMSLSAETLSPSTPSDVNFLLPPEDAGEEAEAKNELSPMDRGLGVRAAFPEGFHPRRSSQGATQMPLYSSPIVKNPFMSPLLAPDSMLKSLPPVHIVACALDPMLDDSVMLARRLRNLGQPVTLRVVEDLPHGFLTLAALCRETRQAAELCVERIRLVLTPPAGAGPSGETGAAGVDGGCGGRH
In words: Human Hormone-Sensitive Lipase (HSL) Enzyme Inhibition Assay. Type of assay: biochemical. As to conditions: colorimetric assay, 2,3-dimercapto-1-propanol tributyrate (DMPT) substrate, 37° C. for 20 minutes, absorbance at 405 nm; read-out: HSL hum IC50. In short, it runs like this:
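Colorimetric thioester hydrolysis: compounds in DMSO series mixed with DMPT (1.5 mM) in MOPS pH 7.2 with BSA, then baculovirus-expressed His6-tagged full-length human HSL added, 37° C, 20 min. DTNB plus detergents added, 15 min room temperature, absorbance at 405 nm.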
In general, IC50 refers to the point on the concentration scale where inhibition reaches its midpoint. Regarding `O=C(N1CCC2(CC1)CCN(c1ccc(OC(F)(F)F)cc1)C2=O)C1(O)CC1` [Example 219, 8-(1-Hydroxy-cyclopropanecarbonyl)-2-(4-trifluoromethoxy-phenyl)-2,8-diaza-spiro[4.5]decan-1-one], the IC50 was found to be 280 nM.
For `O=C(COCc1ccccc1)N1CCC2(CC1)CCN(c1ccc(OC(F)(F)F)cc1)C2=O` [Example 220, 8-(2-Benzyloxy-acetyl)-2-(4-trifluoromethoxy-phenyl)-2,8-diaza-spiro[4.5]decan-1-one] the value was 80 nM; for `O=C(COc1ccccc1)N1CCC2(CC1)CCN(c1ccc(OC(F)(F)F)cc1)C2=O` [Example 221, 8-(2-Phenoxy-acetyl)-2-(4-trifluoromethoxy-phenyl)-2,8-diaza-spiro[4.5]decan-1-one], 60 nM; for `CC(C(=O)N1CCC2(CC1)CCN(c1ccc(OC(F)(F)F)cc1)C2=O)c1ccccc1` (centres unmarked) [Example 222, 8-(2-Phenyl-propionyl)-2-(4-trifluoromethoxy-phenyl)-2,8-diaza-spiro[4.5]decan-1-one], 100 nM.
For `CCC(C(=O)N1CCC2(CC1)CCN(c1ccc(OC(F)(F)F)cc1)C2=O)c1ccccc1` (centres unmarked) [Example 223, 8-(2-Phenyl-butyryl)-2-(4-trifluoromethoxy-phenyl)-2,8-diaza-spiro[4.5]decan-1-one] the value was 110 nM; for `Cc1nc(C(=O)N2CCC3(CC2)CCN(c2ccc(OC(F)(F)F)cc2)C3=O)cs1` [Example 224, 8-(2-Methyl-thiazole-4-carbonyl)-2-(4-trifluoromethoxy-phenyl)-2,8-diaza-spiro[4.5]decan-1-one], 820 nM.
For `O=C(CCl)N1CCC2(CC1)CCN(c1ccc(OC(F)(F)F)cc1)C2=O` [Example 225, 8-(2-Chloro-acetyl)-2-(4-trifluoromethoxy-phenyl)-2,8-diaza-spiro[4.5]decan-1-one] the value was 320 nM.
`O=C(COC1CCCC1)N1CCC2(CC1)CCN(c1ccc(OC(F)(F)F)cc1)C2=O` [Example 226, 8-(2-Cyclopentyloxy-acetyl)-2-(4-trifluoromethoxy-phenyl)-2,8-diaza-spiro[4.5]decan-1-one]: the concentration for half-maximal inhibition (IC50) was 50 nM.
With `O=C1N(c2ccc(C(F)(F)F)c(Cl)c2)CCC12CCN(S(=O)(=O)c1ccccc1Cl)CC2` [Example 227, 8-(2-Chloro-benzenesulfonyl)-2-(3-chloro-4-trifluoromethyl-phenyl)-2,8-diaza-spiro[4.5]decan-1-one] the figure was 80 nM.
As to `O=C1N(c2ccc3c(c2)OC(F)(F)O3)CCC12CCN(S(=O)(=O)c1ccccc1Cl)CC2` [Example 228, 8-(2-Chloro-benzenesulfonyl)-2-(2,2-difluoro-benzo[1,3]-dioxol-5-yl)-2,8-diaza-spiro[4.5]decan-1-one], the half-inhibitory concentration (IC50) was 60 nM.
For `O=C1N(c2ccc(C3(O)COC3)cc2)CCC12CCN(S(=O)(=O)c1ccccc1Cl)CC2` [Example 229, 8-(2-Chloro-benzenesulfonyl)-2-[4-(3-hydroxy-oxetan-3-yl)-phenyl]-2,8-diaza-spiro[4.5]decan-1-one] the value was 240 nM; for `O=C1N(c2ccc(C3(F)COC3)cc2)CCC12CCN(S(=O)(=O)c1ccccc1Cl)CC2` [Example 230, 8-(2-Chloro-benzenesulfonyl)-2-[4-(3-fluoro-oxetan-3-yl)-phenyl]-2,8-diaza-spiro[4.5]decan-1-one], 30 nM; for `O=C1N(c2ccc(C3(O)CCC3)cc2)CCC12CCN(S(=O)(=O)c1ccccc1Cl)CC2` [Example 231, 8-(2-Chloro-benzenesulfonyl)-2-[4-(1-hydroxy-cyclobutyl)-phenyl]-2,8-diaza-spiro[4.5]decan-1-one], 20 nM.
Consider `Cc1cc(CS(=O)(=O)N2CCC3(CCN(c4ccc(OC(F)(F)F)cc4)C3=O)CC2)no1` [Example 232, 8-(5-Methyl-isoxazol-3-ylmethanesulfonyl)-2-(4-trifluoromethoxy-phenyl)-2,8-diaza-spiro[4.5]decan-1-one], for which the concentration for half-maximal inhibition (IC50) stood at 90 nM.
For `CC(C)c1cc(CS(=O)(=O)N2CCC3(CCN(c4ccc(OC(F)(F)F)cc4)C3=O)CC2)on1` [Example 233, 8-(3-Isopropyl-isoxazol-5-ylmethanesulfonyl)-2-(4-trifluoromethoxy-phenyl)-2,8-diaza-spiro[4.5]decan-1-one] the value was 200 nM; for `COC(=O)c1cccc(C)c1S(=O)(=O)N1CCC2(CCN(c3ccc(OC(F)(F)F)cc3)C2=O)CC1` [Example 234, 3-Methyl-2-[1-oxo-2-(4-trifluoromethoxy-phenyl)-2,8-diaza-spiro[4.5]decane-8-sulfonyl]-benzoic acid methyl ester], 150 nM.
For `O=C1N(Cc2cccc(Cl)c2)CCC12CCN(S(=O)(=O)c1ccccc1Cl)CC2` [Example 235, 8-(2-Chloro-benzenesulfonyl)-2-(3-chloro-benzyl)-2,8-diaza-spiro[4.5]decan-1-one] the value was 400 nM; for `O=C1N(CCc2ccccc2)CCC12CCN(S(=O)(=O)c1ccccc1Cl)CC2` [Example 236, 8-(2-Chloro-benzenesulfonyl)-2-phenethyl-2,8-diaza-spiro[4.5]decan-1-one], 50 nM.
With `CCc1ccc(CCN2CCC3(CCN(S(=O)(=O)c4ccccc4Cl)CC3)C2=O)cc1` [Example 237, 8-(2-Chloro-benzenesulfonyl)-2-[2-(4-ethyl-phenyl)-ethyl]-2,8-diaza-spiro[4.5]decan-1-one] the figure was 40 nM.
Consider `CC(C)(C)c1ccc(CCN2CCC3(CCN(S(=O)(=O)c4ccccc4Cl)CC3)C2=O)cc1` [Example 238, 2-[2-(4-tert-Butyl-phenyl)-ethyl]-8-(2-chloro-benzenesulfonyl)-2,8-diaza-spiro[4.5]decan-1-one], for which the IC50 came to 100 nM.
With `O=C1N(CCc2ccc(F)cc2)CCC12CCN(S(=O)(=O)c1ccccc1Cl)CC2` [Example 239, 8-(2-Chloro-benzenesulfonyl)-2-[2-(4-fluoro-phenyl)-ethyl]-2,8-diaza-spiro[4.5]decan-1-one] the figure was 60 nM; with `COc1ccc(CCN2CCC3(CCN(S(=O)(=O)c4ccccc4Cl)CC3)C2=O)cc1` [Example 240, 8-(2-Chloro-benzenesulfonyl)-2-[2-(4-methoxy-phenyl)-ethyl]-2,8-diaza-spiro[4.5]decan-1-one], 60 nM.
With `O=C1N(CCCc2ccccc2)CCC12CCN(S(=O)(=O)c1ccccc1Cl)CC2` [Example 241, 8-(2-Chloro-benzenesulfonyl)-2-(3-phenyl-propyl)-2,8-diaza-spiro[4.5]decan-1-one] the figure was 90 nM; with `O=C1N(CCc2ccccc2Cl)CCC12CCN(S(=O)(=O)c1ccccc1Cl)CC2` [Example 242, 8-(2-Chloro-benzenesulfonyl)-2-[2-(2-chloro-phenyl)-ethyl]-2,8-diaza-spiro[4.5]decan-1-one], 210 nM; with `O=C1N(CCc2cccc(F)c2)CCC12CCN(S(=O)(=O)c1ccccc1Cl)CC2` [Example 243, 8-(2-Chloro-benzenesulfonyl)-2-[2-(3-fluoro-phenyl)-ethyl]-2,8-diaza-spiro[4.5]decan-1-one], 50 nM.
With `COc1cccc(CCN2CCC3(CCN(S(=O)(=O)c4ccccc4Cl)CC3)C2=O)c1` [Example 244, 8-(2-Chloro-benzenesulfonyl)-2-[2-(3-methoxy-phenyl)-ethyl]-2,8-diaza-spiro[4.5]decan-1-one] the figure was 230 nM.
For the compound `O=C1N(CCc2cccc(C(F)(F)F)c2)CCC12CCN(S(=O)(=O)c1ccccc1Cl)CC2` [Example 245, 8-(2-Chloro-benzenesulfonyl)-2-[2-(3-trifluoromethyl-phenyl)-ethyl]-2,8-diaza-spiro[4.5]decan-1-one], the IC50 was found to be 100 nM.
With `O=C1N(CCCCc2ccccc2)CCC12CCN(S(=O)(=O)c1ccccc1Cl)CC2` [Example 246, 8-(2-Chloro-benzenesulfonyl)-2-(4-phenyl-butyl)-2,8-diaza-spiro[4.5]decan-1-one], the IC50 was 80 nM.
On to `O=C1N(CCc2cccc(Cl)c2)CCC12CCN(S(=O)(=O)c1ccccc1Cl)CC2` [Example 247, 8-(2-Chloro-benzenesulfonyl)-2-[2-(3-chloro-phenyl)-ethyl]-2,8-diaza-spiro[4.5]decan-1-one], for which the IC50 was 80 nM.
